Experimental findings from US10155259B2 (Merck Sharp & Dohme B.V., priority 2011, dated 2018) are described below.

The target of the experiment is T1, human FSH receptor (Homo sapiens, UniProt P23945).
T1 construct: expressed in transfected cells; host or cells: CHO cells, stably transfected; cotransfected with CRE-luciferase reporter
T1 sequence (P23945 18-695): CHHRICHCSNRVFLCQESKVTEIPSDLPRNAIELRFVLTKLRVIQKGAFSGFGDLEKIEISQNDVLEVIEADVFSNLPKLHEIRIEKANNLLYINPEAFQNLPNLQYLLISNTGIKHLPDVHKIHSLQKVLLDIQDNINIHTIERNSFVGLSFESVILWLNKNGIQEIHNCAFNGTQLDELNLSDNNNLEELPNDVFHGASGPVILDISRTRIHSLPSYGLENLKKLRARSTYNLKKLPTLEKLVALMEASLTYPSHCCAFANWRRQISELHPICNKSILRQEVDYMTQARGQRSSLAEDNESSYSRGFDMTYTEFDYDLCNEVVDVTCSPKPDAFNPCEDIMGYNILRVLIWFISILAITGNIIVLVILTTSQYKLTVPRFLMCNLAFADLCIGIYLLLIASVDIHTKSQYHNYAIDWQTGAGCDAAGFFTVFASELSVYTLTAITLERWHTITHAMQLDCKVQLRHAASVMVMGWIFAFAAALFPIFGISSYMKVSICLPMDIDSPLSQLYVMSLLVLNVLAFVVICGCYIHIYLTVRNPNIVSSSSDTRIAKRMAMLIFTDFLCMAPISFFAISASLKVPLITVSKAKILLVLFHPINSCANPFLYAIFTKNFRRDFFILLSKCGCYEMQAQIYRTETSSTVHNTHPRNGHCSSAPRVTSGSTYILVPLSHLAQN
The experiment is described as follows: Antagonistic activity of compounds at the human FSH receptor expressed in CHO cells (CRE-luciferase reporter). It is filed as cell-based. Conditions: CHO cells stably transfected with human FSH receptor and CRE/luciferase reporter; together with 49 μM recFSH; 4 hours incubation; 1% DMSO; read-out: IC50 (concentration of test compound causing half-maximal inhibition of the maximally attainable inhibition of the luciferase stimulation). How it is done:
Antagonistic Activity of Compounds at the Human FSH Receptor Expressed in CHO Cells
Antagonistic activity of the compounds at the human FSH receptor was determined in Chinese Hamster Ovary (CHO) cells stably transfected with the human FSH receptor and cotransfected with a cAMP responsive element (CRE)/promotor directing the expression of a firefly luciferase reporter gene. Binding of the compounds to the Gs protein-coupled FSH receptor will result in an increase of cAMP, which in turn will induce an increased transactivation of the luciferase reporter. The cells (7,500 cells/well of a 384 well plate) were incubated in Dulbecco' minimal essential F12 modified medium (Invitrogen), supplemented with 1 μg/ml bovine insulin, 5 μg/ml human apo-transferrin, 100 U/ml penicillin G and 100 μg/ml streptomycin with the test compounds (concentration between 0.316 nM and 10.0 μM) in duplicate together with […] (which, at this concentration in the absence of test compound, induces 80% of the maximal luciferase stimulation) in a humidified atmosphere (95%) at 5-7% CO2 and 37° C. The final concentration of DMSO was 1%. After 4 hours of incubation, plates were allowed to adjust to room temperature for 1 hour. Then, SteadyLite (PerkinElmer) solution was added to the wells and cells were allowed to lyse for at least 1 hour at room temperature. Subsequently, luciferase activity was measured in a luminescence counter. The signal is expressed as counts per second (cps). The IC50 (concentration of test compound causing half-maximal (50%) inhibition of the maximally attainable inhibition of the luciferase stimulation by the compound) and efficacy of the compounds were determined using the software program MathIQ (version 2.3, ID Business Solutions Limited).
For orientation: A reporter such as luciferase makes a cellular process visible.
`COc1cc2c(cc1OC)-c1c(C)c(C(=O)N[C@@H](CO)Cc3c[nH]c4ccccc34)c(-c3ccccc3)n1CC2` [Example 1, (R)—N-(1-hydroxy-3-(1H-indol-3-yl)propan-2-yl)-8,9-dimethoxy-1-methyl-3-phenyl-5,6-dihydropyrrolo[2,1-a]isoquinoline-2-carboxamide]: the IC50 is 100 to 1000 nM.
Take `COc1cc2c(cc1OC(C)C)-c1cc(C(=O)NC(C)(CO)Cc3c[nH]c4ccccc34)c(-c3cccc(F)c3)n1CC2` (stereo not shown) [Example 2]: the IC50 lay within 100 to 1000 nM.
Turning to `COc1cc2c(cc1OC(C)C)-c1cc(C(=O)NC(CO)C3(c4c[nH]c5ccccc45)CC3)c(-c3cccc(F)c3)n1CC2` (stereo not shown) [Example 3], the IC50 was 100 to 1000 nM.
In the case of `COc1cc2c(cc1OC)-c1cc(C(=O)N[C@@H](CO)Cc3c[nH]c4ccccc34)c(-c3cc(C)cc(C)c3)n1CC2` [Example 4, (R)-3-(3,5-dimethylphenyl)-N-(1-hydroxy-3-(1H-indol-3-yl)propan-2-yl)-8,9-dimethoxy-5,6-dihydropyrrolo[2,1-a]isoquinoline-2-carboxamide], the IC50 lay in the range of 100 to 1000 nM.
For the molecule `COc1cc2c(cc1OC)-c1cc(C(=O)N[C@@H](CO)Cc3c[nH]c4ccccc34)c(-c3ccccc3)n1CC2` [Example 5, (R)—N-(1-hydroxy-3-(1H-indol-3-yl)propan-2-yl)-8,9-dimethoxy-3-phenyl-5,6-dihydropyrrolo[2,1-a]isoquinoline-2-carboxamide], the IC50 was below 100 nM.
As for `COc1cc2c(cc1OC)-c1cc(C(=O)N[C@@H](CO)Cc3c[nH]c4ccccc34)c(-c3ccc(F)cc3)n1CC2` [Example 6, (R)—N-(1-hydroxy-3-(1H-indol-3-yl)propan-2-yl)-8,9-dimethoxy-3-(4-fluorophenyl)-5,6-dihydropyrrolo[2,1-a]isoquinoline-2-carboxamide], the IC50 is below 100 nM.
As for `COc1cc2c(cc1OC)-c1cc(C(=O)N[C@@H](CO)Cc3c[nH]c4ccccc34)c(-c3cccs3)n1CC2` [Example 7, (R)—N-(1-hydroxy-3-(1H-indol-3-yl)propan-2-yl)-8,9-dimethoxy-3-(thiophen-2-yl)-5,6-dihydropyrrolo[2,1-a]isoquinoline-2-carboxamide], the IC50 was below 100 nM.
Take `COc1ccc(-c2c(C(=O)N[C@@H](CO)Cc3c[nH]c4ccccc34)cc3n2CCc2cc(OC)c(OC)cc2-3)cc1` [Example 8, (R)—N-(1-hydroxy-3-(1H-indol-3-yl)propan-2-yl)-8,9-dimethoxy-3-(4-methoxyphenyl)-5,6-dihydropyrrolo[2,1-a]isoquinoline-2-carboxamide]: the IC50 is below 100 nM.
Turning to `COc1cc2c(cc1OC)-c1cc(C(=O)N[C@@H](CO)Cc3c[nH]c4ccccc34)c(-c3ccc([N+](=O)[O-])cc3)n1CC2` [Example 9, (R)—N-(1-hydroxy-3-(1H-indol-3-yl)propan-2-yl)-8,9-dimethoxy-3-(4-nitrophenyl)-5,6-dihydropyrrolo[2,1-a]isoquinoline-2-carboxamide], the IC50 lay within 100 to 1000 nM.
As for `COc1cc2c(cc1OC)-c1cc(C(=O)N[C@@H](CO)Cc3c[nH]c4ccccc34)c(-c3cccc(F)c3)n1CC2` [Example 10, (R)-3-(3-fluorophenyl)-N-(1-hydroxy-3-(1H-indol-3-yl)propan-2-yl)-8,9-dimethoxy-5,6-dihydropyrrolo[2,1-a]isoquinoline-2-carboxamide], the IC50 is below 100 nM.
The result for `COc1cc2c(cc1OC)-c1cc(C(=O)N[C@@H](CO)Cc3c[nH]c4ccccc34)c(-c3ccccn3)n1CC2` [Example 11] reads below 100 nM; that for `COc1cccc(-c2c(C(=O)N[C@@H](CO)Cc3c[nH]c4ccccc34)cc3n2CCc2cc(OC)c(OC)cc2-3)c1` [Example 12, (R)—N-(1-hydroxy-3-(1H-indol-3-yl)propan-2-yl)-8,9-dimethoxy-3-(3-methoxyphenyl)-5,6-dihydropyrrolo[2,1-a]isoquinoline-2-carboxamide], below 100 nM.
On to `COc1cc2c(cc1OC(C)C)-c1cc(C(=O)N[C@@H](CO)Cc3c[nH]c4ccccc34)c(-c3ccc(F)cc3)n1CC2` [Example 13, (R)-3-(4-fluorophenyl)-N-(1-hydroxy-3-(1H-indol-3-yl)propan-2-yl)-9-isopropoxy-8-methoxy-5,6-dihydropyrrolo[2,1-a]isoquinoline-2-carboxamide], for which the IC50 was below 100 nM.
In the case of `COc1cc2c(cc1OC(C)C)-c1cc(C(=O)N[C@@H](CO)Cc3c[nH]c4ccccc34)c(-c3cccc(C)c3)n1CC2` [Example 14, (R)—N-(1-hydroxy-3-(1H-indol-3-yl)propan-2-yl)-9-isopropoxy-8-methoxy-3-m-tolyl-5,6-dihydropyrrolo[2,1-a]isoquinoline-2-carboxamide] it was below 100 nM; in that of `COc1cc2c(cc1OC(C)C)-c1cc(C(=O)N[C@@H](CO)Cc3c[nH]c4ccccc34)c(-c3ccc(N)nc3)n1CC2` [Example 15, (R)-3-(6-aminopyridin-3-yl)-N-(1-hydroxy-3-(1H-indol-3-yl)propan-2-yl)-9-isopropoxy-8-methoxy-5,6-dihydropyrrolo[2,1-a]isoquinoline-2-carboxamide], 100 to 1000 nM.
Regarding `COc1cc2c(cc1OC(C)C)-c1cc(C(=O)N[C@@H](CO)Cc3c[nH]c4ccccc34)c(-c3cccc(Cl)c3)n1CC2` [Example 16, (R)-3-(3-chlorophenyl)-N-(1-hydroxy-3-(1H-indol-3-yl)propan-2-yl)-9-isopropoxy-8-methoxy-5,6-dihydropyrrolo[2,1-a]isoquinoline-2-carboxamide], the IC50 is below 100 nM.
`COc1cc2c(cc1OC(C)C)-c1cc(C(=O)N[C@@H](CO)Cc3c[nH]c4ccccc34)c(-c3ccccc3F)n1CC2` [Example 18, 3-(2-fluorophenyl)-N—((R)-1-hydroxy-3-(1H-indol-3-yl)propan-2-yl)-9-isopropoxy-8-methoxy-5,6-dihydropyrrolo[2,1-a]isoquinoline-2-carboxamide]: the IC50 was below 100 nM.
Take `COc1cc2c(cc1OC(C)C)-c1cc(C(=O)N[C@@H](CO)Cc3c[nH]c4ccccc34)c(-c3ccco3)n1CC2` [Example 19, (R)-3-(furan-2-yl)-N-(1-hydroxy-3-(1H-indol-3-yl)propan-2-yl)-9-isopropoxy-8-methoxy-5,6-dihydropyrrolo[2,1-a]isoquinoline-2-carboxamide]: the IC50 is below 100 nM.
For `COc1cc2c(cc1OC(C)C)-c1cc(C(=O)N[C@@H](CO)Cc3c[nH]c4ccccc34)c(CC(C)C)n1CC2` [Example 22, (R)—N-(1-hydroxy-3-(1H-indol-3-yl)propan-2-yl)-3-isobutyl-9-isopropoxy-8-methoxy-5,6-dihydropyrrolo[2,1-a]isoquinoline-2-carboxamide], the IC50 is below 100 nM.
As for `COc1cc2c(cc1OC(C)C)-c1cc(C(=O)N[C@@H](CO)Cc3c[nH]c4ccccc34)c(C=C(C)C)n1CC2` [Example 23, (R)—N-(1-hydroxy-3-(1H-indol-3-yl)propan-2-yl)-9-isopropoxy-8-methoxy-3-(2-methylprop-1-enyl)-5,6-dihydropyrrolo[2,1-a]isoquinoline-2-carboxamide], the IC50 was below 100 nM.
For the molecule `COc1cc2c(cc1OC(C)C)-c1cc(C(=O)N[C@@H](CO)Cc3c[nH]c4ccccc34)c(C(=O)C(C)C)n1CC2` [Example 24, (R)—N-(1-hydroxy-3-(1H-indol-3-yl)propan-2-yl)-3-isobutyryl-9-isopropoxy-8-methoxy-5,6-dihydropyrrolo[2,1-a]isoquinoline-2-carboxamide], the IC50 was below 100 nM.
On to `COc1cc2c(cc1OC(C)C)-c1cc(C(=O)N[C@@H](CO)Cc3c[nH]c4ccccc34)c(C(=O)C(C)(C)C)n1CC2` [Example 25, (R)—N-(1-hydroxy-3-(1H-indol-3-yl)propan-2-yl)-9-isopropoxy-8-methoxy-3-pivaloyl-5,6-dihydropyrrolo[2,1-a]isoquinoline-2-carboxamide], for which the IC50 was below 100 nM.
